From patent US12116424B2, “Compounds and compositions for modulating Listeria virulence” (priority 2021, dated 2024)
Where two headings read alike, the source gives them in different places. Where a SMILES comes first, the peptide text is derived from it. Bridges are numbered along the chain shown (N, C = ends). [ ]: non-standard residue; d: D form.

Key:
L. monocytogenes EGD-e = type: cell-based, Listeria monocytogenes
Method: Biofilm assay protocol. Biofilms assays were adapted from previous reports and protocols.^51-52 Overnight cultures of L. monocytogenes EGD-e and ΔagrD were grown in BHI, then diluted 1:100 in LB. For single-point assays, 2 μL of agonists or antagonists at an appropriate concentration were added to wells in a clear 96-well microtiter plates. For dose-response assays, a stock solution of the select peptide were serially diluted in DMSO, then 2 μL of each concentration were transferred to the appropriate wells. Then, 198 μL of bacteria were added to their respective wells, using ΔagrD for agonist wells and EGD-e for antagonist wells. In each plate, additional vehicle controls for baseline biofilm formation of EGD-e and ΔagrD strains (2 μL of DMSO) were included, as well as a media control (200 μL of LB). Plates were incubated at room temperature for 24 hours statically, at which point plates were inverted over a glass waste container and gently shook to remove planktonic bacteria. The wells were gently washed with 200 μL of PBS twice, inverting again over the waste container to remove liquid. Then, 200 μL of 0.1% crystal violet solution (in water) were added to each well and incubated for 30 minutes. The wells were then washed with 200 μL of PBS three more times and left to air dry for 15 minutes. Remaining crystal violet was solubilized by the addition of 100 μL of 95% ethanol in water solution, pipetting up and down to mix, incubated for 10 minutes, then absorbance was read at 595 nm. Absorbance data was processed by normalizing to the EGD-e vehicle control (100%) and the LB media control (0%). Non-linear regression curves were fitted to the data sets in GraphPad Prism 7 by using variable slope (four-parameter) dose-response analysis to obtain potency, efficacy, and statistical information about the activity of tested peptides. Each well was tested with four technical replicates and three biological replicates. […]

L. monocytogenes AgrC [1] = target: T1, L. monocytogenes AgrC (Listeria monocytogenes serovar 1/2a, UniProt Q8YAR5); experiment: Fluorescence (agr-GFP) reporter agonism assay, ΔagrD reporter strain; type: cell-based; design: Emax: dose or concentration left out as unconfirmed
T1 sequence (Q8YAR5 entry or part of it): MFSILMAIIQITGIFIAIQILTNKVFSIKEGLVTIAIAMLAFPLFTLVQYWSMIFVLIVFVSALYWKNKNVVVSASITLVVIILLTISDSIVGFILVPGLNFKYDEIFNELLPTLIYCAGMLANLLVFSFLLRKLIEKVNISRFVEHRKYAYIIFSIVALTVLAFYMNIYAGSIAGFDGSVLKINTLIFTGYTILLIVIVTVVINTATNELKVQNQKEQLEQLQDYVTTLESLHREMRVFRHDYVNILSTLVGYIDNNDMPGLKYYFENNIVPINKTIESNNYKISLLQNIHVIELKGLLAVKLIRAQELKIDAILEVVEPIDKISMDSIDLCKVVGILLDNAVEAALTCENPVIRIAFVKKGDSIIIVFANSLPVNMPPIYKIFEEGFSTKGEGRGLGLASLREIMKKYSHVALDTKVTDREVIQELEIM
How it was run: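 L. monocytogenes EGD-e strains carrying agr promoter-GFP plasmid: ΔagrD for agonism (normalized to 1 μM AIP), wild type for antagonism (normalized to DMSO). Peptides in 1% DMSO with diluted overnight culture in BHI, 24 h at 37 °C shaking; GFP fluorescence corrected for background and OD600, four-parameter dose-response fit.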

L. monocytogenes AgrC [2] = target: T1, L. monocytogenes AgrC; experiment: Fluorescence (agr-GFP) reporter antagonism assay, wild-type EGD-e reporter strain; type: cell-based
Excerpt: Construction of Listeria agr Reporter Strains. A gene block was designed and purchased from Integrated DNA Technologies to contain an EagI recognition site, the PII promoter of the agr system, the 3′ UTR of hly, super folder GFP, and a SaII recognition site. The gene block was digested with EagI and SaII, cloned into an EagI/SaII-cut pAM401 plasmid resulting in the plasmid pAM401-KW1, and then transformed into E. coli XL1-Blue competent cells. The insertion into pAM401 was confirmed using Kapa polymerase and primers DAP337 and DAP338, and additional confirmation via commercial sequencing. Purified plasmid was transformed into the conjugative E. coli S17 strain, which was used to conjugate to EGD-e and EGD-e ΔagrD to generate the agr-GFP reporter strains EGD-e:pAM401-KW1 and EGD-e ΔagrD:pAM401-KW1. Conjugation was verified using primers DAP337 and DAP338.
Fluorescence reporter assay protocol. For QS (agr) reporter assays, peptide stock solutions in DMSO (1 mM) were serially diluted in DMSO, and 2 μL of solution was added to each well in a black 96-well plate (polystyrene microtiter plate, Costar). Agonism assays utilized the ΔagrD reporter strain, with 2 μL of 100 μM AIP (final concentration 1 μM) as a positive control and 2 μL of DMSO as a negative control. Antagonism assays utilized the EGD-e reporter strain, with 2 μL of DMSO as a positive control. In both assays, wells containing only BHI media served as negative controls for normalization. An overnight culture of bacteria was diluted 1:50 in fresh BHI, then 198 μL were transferred to each well (excluding the media control wells). Plates were then incubated at 37° C. for 24 hours with shaking at 200 rpm. Fluorescence of GFP (excitation at 500 nm, emission at 540 nm) and OD600 of each well was measured using BioTek Synergy 2 plate reader. Measurements were processed by subtracting background fluorescence (BHI media), correcting by OD600, and the normalizing using the 1 μM AIP or the DMSO control for the agonism and antagonism assays, respectively. Non-linear regression curves were fitted to the data sets in GraphPad Prism 7 by using variable slope (four-parameter) dose-response analysis to obtain potency, efficacy, and statistical information about the activity of tested peptides. Each peptide was tested with three technical replicates and three biological replicates. All data derived from fluorescent reporter strains are represented with data points signifying the mean and error bars signifying the standard deviation from all replicates.
Preparation and Validation of Listeria agr Reporter Strains. […] However, adding exogenous AIP to the ΔagrD reporter results in an increase of fluorescence, indicating agr activity has been restored.

[3] = system: L. monocytogenes EGD-e ΔagrD; experiment: Crystal violet biofilm assay, ΔagrD strain (agonists); type: cell-based, Listeria monocytogenes
Method: Biofilm assay protocol. Biofilms assays were adapted from previous reports and protocols.^51-52 Overnight cultures of L. monocytogenes EGD-e and ΔagrD were grown in BHI, then diluted 1:100 in LB. For single-point assays, 2 μL of agonists or antagonists at an appropriate concentration were added to wells in a clear 96-well microtiter plates. For dose-response assays, a stock solution of the select peptide were serially diluted in DMSO, then 2 μL of each concentration were transferred to the appropriate wells. Then, 198 μL of bacteria were added to their respective wells, using ΔagrD for agonist wells and EGD-e for antagonist wells. In each plate, additional vehicle controls for baseline biofilm formation of EGD-e and ΔagrD strains (2 μL of DMSO) were included, as well as a media control (200 μL of LB). Plates were incubated at room temperature for 24 hours statically, at which point plates were inverted over a glass waste container and gently shook to remove planktonic bacteria. The wells were gently washed with 200 μL of PBS twice, inverting again over the waste container to remove liquid. Then, 200 μL of 0.1% crystal violet solution (in water) were added to each well and incubated for 30 minutes. The wells were then washed with 200 μL of PBS three more times and left to air dry for 15 minutes. Remaining crystal violet was solubilized by the addition of 100 μL of 95% ethanol in water solution, pipetting up and down to mix, incubated for 10 minutes, then absorbance was read at 595 nm. Absorbance data was processed by normalizing to the EGD-e vehicle control (100%) and the LB media control (0%). Non-linear regression curves were fitted to the data sets in GraphPad Prism 7 by using variable slope (four-parameter) dose-response analysis to obtain potency, efficacy, and statistical information about the activity of tested peptides. Each well was tested with four technical replicates and three biological replicates. All data derived from crystal violet biofilm assays are represented with data points signifying the mean and error bars signifying the standard deviation from all replicates.

[4] = read-out: Max Activation Observed

| Structure (SMILES) | biofilm of wild-type (WT) strain (FIG. 9B) (L. monocytogenes EGD-e) | wild-type biofilm formation reduced by (L. monocytogenes EGD-e; 100 μM) [%] | IC50 (L. monocytogenes EGD-e; dose-response, wild-type biofilm, read-out: IC50 (biofilm formation)) [nM] | Emax (L. monocytogenes AgrC [1]; [4]) [%] | antagonism activity (in words) (L. monocytogenes AgrC [2]) | biofilm formation of ΔagrD strain (FIG. 9A) [3] | biofilm production compared to vehicle controls ([3]; 10 μM, ΔagrD bacteria) | Emax (L. monocytogenes AgrC [1]; read-out: Max Activation) [%] | Emax at 1 µM (L. monocytogenes AgrC [1]; read-out: Max Activation) [%] |
| --- | --- | --- | --- | --- | --- | --- | --- | --- | --- |
| CSCC[C@H]1NC(=O)[C@H](Cc2ccccc2)NC(=O)[C@H](NC(=O)[C@@H](N)CCCCN)CSC(=O)[C@H](C(C)C)NC(=O)[C@H](Cc2ccccc2)NC1=O [A1K/C2dC/M4dM, K-(dC-F-dM-F-V)] (H-K[dC]F[dM]FV; thioester 2-C) | reduces biofilm | 90 | 1860 | 8.1 | inhibiting wild-type activity to levels similar to basal ΔagrD activity | – | – | – | – |
| CSCC[C@@H]1NC(=O)[C@H](Cc2ccccc2)NC(=O)[C@@H](NC(=O)[C@H](C)N)CSC(=O)[C@H](C(C)C)NC(=O)[C@H](Cc2ccccc2)NC1=O [AIP, A-(C-F-M-F-V), reference compound] (H-ACFMFV; thioester 2-C; N-terminus assumed) | – | – | – | 114 | – | increase biofilm formation | doubled | 114 | 114 |
